Assay results published in BindingDB's records for doi:10.1021/jm070166b (Merck Research Laboratories, 2007).

Test: Antagonist activity against human CCR2 receptor in human monocytes assessed as inhibition of chemotaxis

IC50: 57 nM
Structure (SMILES): C[C@H]1CN([C@@H]2CC[C@H](C(=O)NCc3cc(C(F)(F)F)cc(C(F)(F)F)c3)C2)CC[C@@]12C=Cc1ccccc12 [(1S,3R)-N-{[3,5-bis(trifluoromethyl)phenyl]methyl}-3-[(1R,5'R)-5'-methylspiro[indene-1,4'-piperidine]-1'-yl]cyclopentane-1-carboxamide]
